Laboratory results as given in PubChem BioAssay (NCI).
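How tested: cells in 96-well plates exposed to compound for 48 hours at five concentrations. Abbreviation: GI50, concentration required for 50% inhibition of growth. At the TGI there is no net growth.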

Legend:
Test in all cases: NCI-60 cell line screen, 48 h
786-0 renal = system: 786-0 renal
A498 renal = system: A498 renal
A549 NSCLC = system: A549 NSCLC
ACHN renal = system: ACHN renal
BT-549 breast = system: BT-549 breast
CAKI-1 renal = system: CAKI-1 renal
CCRF-CEM leukemia = system: CCRF-CEM leukemia
COLO 205 colon = system: COLO 205 colon
DU-145 prostate = system: DU-145 prostate
HCC-2998 colon = system: HCC-2998 colon
HCT-116 colon = system: HCT-116 colon
HCT-15 colon = system: HCT-15 colon
HL-60(TB) leukemia = system: HL-60(TB) leukemia
HOP-62 NSCLC = system: HOP-62 NSCLC
HS 578T breast = system: HS 578T breast
HT29 colon = system: HT29 colon
IGROV1 ovarian = system: IGROV1 ovarian
K-562 leukemia = system: K-562 leukemia
KM12 colon = system: KM12 colon
LOX IMVI melanoma = system: LOX IMVI melanoma
M14 melanoma = system: M14 melanoma
MCF7 breast = system: MCF7 breast
MDA-MB-231 breast = system: MDA-MB-231 breast
MDA-MB-435 = system: MDA-MB-435
MOLT-4 leukemia = system: MOLT-4 leukemia
NCI-H226 lung = system: NCI-H226 lung
NCI-H460 lung = system: NCI-H460 lung
NCI-H522 lung = system: NCI-H522 lung
NCI/ADR-RES ovarian = system: NCI/ADR-RES ovarian
OVCAR-3 ovarian = system: OVCAR-3 ovarian
OVCAR-4 ovarian = system: OVCAR-4 ovarian
OVCAR-5 ovarian = system: OVCAR-5 ovarian
OVCAR-8 ovarian = system: OVCAR-8 ovarian
PC-3 prostate = system: PC-3 prostate
RPMI-8226 leukemia = system: RPMI-8226 leukemia
RXF 393 renal = system: RXF 393 renal
SF-268 CNS = system: SF-268 CNS
SF-295 CNS = system: SF-295 CNS
SF-539 CNS = system: SF-539 CNS
SK-MEL-2 melanoma = system: SK-MEL-2 melanoma
SK-MEL-28 melanoma = system: SK-MEL-28 melanoma
SK-MEL-5 melanoma = system: SK-MEL-5 melanoma
SK-OV-3 ovarian = system: SK-OV-3 ovarian
SN12C renal = system: SN12C renal
SNB-19 CNS = system: SNB-19 CNS
SNB-75 CNS = system: SNB-75 CNS
SR leukemia = system: SR leukemia
SW-620 colon = system: SW-620 colon
U251 CNS = system: U251 CNS
UACC-257 melanoma = system: UACC-257 melanoma
UACC-62 melanoma = system: UACC-62 melanoma
UO-31 renal = system: UO-31 renal

Brc1ccc(SCN(CSc2ccc(Br)cc2)Cc2ccccc2)cc1
GI50 (786-0 renal): 4.3 µM | TGI (786-0 renal): 15.5 µM | GI50 (A498 renal): 1.51 µM | TGI (A498 renal): 3.47 µM | GI50 (A549 NSCLC): 2.41 µM | TGI (A549 NSCLC): 11 µM | GI50 (ACHN renal): 4.49 µM | TGI (ACHN renal): 19 µM | GI50 (BT-549 breast): 1.75 µM | TGI (BT-549 breast): 3.9 µM | GI50 (CAKI-1 renal): 3.47 µM | TGI (CAKI-1 renal): 12.5 µM | GI50 (CCRF-CEM leukemia): 2.1 µM | TGI (CCRF-CEM leukemia): 7.4 µM | GI50 (COLO 205 colon): 3.85 µM | TGI (COLO 205 colon): 13.7 µM | GI50 (DU-145 prostate): 6.12 µM | TGI (DU-145 prostate): 21 µM | GI50 (HCC-2998 colon): 11.5 µM | TGI (HCC-2998 colon): 25.5 µM | GI50 (HCT-116 colon): 3.66 µM | TGI (HCT-116 colon): 14.4 µM | GI50 (HCT-15 colon): 3.56 µM | TGI (HCT-15 colon): 18.8 µM | GI50 (HL-60(TB) leukemia): 2.35 µM | TGI (HL-60(TB) leukemia): 5.36 µM | GI50 (HOP-62 NSCLC): 3.2 µM | TGI (HOP-62 NSCLC): 14.2 µM | GI50 (HS 578T breast): 2.98 µM | TGI (HS 578T breast): > 100 µM | GI50 (HT29 colon): 5.05 µM | TGI (HT29 colon): 18 µM | GI50 (IGROV1 ovarian): 2.64 µM | TGI (IGROV1 ovarian): 7.25 µM | GI50 (K-562 leukemia): 5.44 µM | TGI (K-562 leukemia): 60.6 µM | GI50 (KM12 colon): 2.67 µM | TGI (KM12 colon): 10.9 µM | GI50 (LOX IMVI melanoma): 1.61 µM | TGI (LOX IMVI melanoma): 3.19 µM | GI50 (M14 melanoma): 3.79 µM | TGI (M14 melanoma): 14.2 µM | GI50 (MCF7 breast): 3.06 µM | TGI (MCF7 breast): 13.3 µM | GI50 (MDA-MB-231 breast): 1.69 µM | TGI (MDA-MB-231 breast): 4.3 µM | GI50 (MDA-MB-435): 3.1 µM | TGI (MDA-MB-435): 12.2 µM | GI50 (MOLT-4 leukemia): 2.37 µM | TGI (MOLT-4 leukemia): 6.82 µM | GI50 (NCI-H226 lung): 1.93 µM | TGI (NCI-H226 lung): 4.39 µM | GI50 (NCI-H460 lung): 2.78 µM | TGI (NCI-H460 lung): 12 µM | GI50 (NCI-H522 lung): 2.43 µM | TGI (NCI-H522 lung): 5.62 µM | GI50 (NCI/ADR-RES ovarian): 4 µM | TGI (NCI/ADR-RES ovarian): 95.8 µM | GI50 (OVCAR-3 ovarian): 3.54 µM | TGI (OVCAR-3 ovarian): 11.4 µM | GI50 (OVCAR-4 ovarian): 10.4 µM | TGI (OVCAR-4 ovarian): 87.8 µM | GI50 (OVCAR-5 ovarian): 2.89 µM | TGI (OVCAR-5 ovarian): 11.4 µM | GI50 (OVCAR-8 ovarian): 3.71 µM | TGI (OVCAR-8 ovarian): 17.9 µM | GI50 (PC-3 prostate): 2.34 µM | TGI (PC-3 prostate): 10.3 µM | GI50 (RPMI-8226 leukemia): 3.31 µM | TGI (RPMI-8226 leukemia): 10.5 µM | GI50 (RXF 393 renal): 5.54 µM | TGI (RXF 393 renal): 20.4 µM | GI50 (SF-268 CNS): 2.31 µM | TGI (SF-268 CNS): 12.6 µM | GI50 (SF-295 CNS): 1.28 µM | TGI (SF-295 CNS): 3.49 µM | GI50 (SF-539 CNS): 1.92 µM | TGI (SF-539 CNS): 3.88 µM | GI50 (SK-MEL-2 melanoma): 6.06 µM | TGI (SK-MEL-2 melanoma): 19.9 µM | GI50 (SK-MEL-28 melanoma): 5.12 µM | TGI (SK-MEL-28 melanoma): 23.4 µM | GI50 (SK-MEL-5 melanoma): 1.77 µM | TGI (SK-MEL-5 melanoma): 3.46 µM | GI50 (SK-OV-3 ovarian): 7.12 µM | TGI (SK-OV-3 ovarian): 51 µM | GI50 (SN12C renal): 1.38 µM | TGI (SN12C renal): 14.2 µM | GI50 (SNB-19 CNS): 2.69 µM | TGI (SNB-19 CNS): 23.5 µM | GI50 (SNB-75 CNS): 2.28 µM | TGI (SNB-75 CNS): 10.9 µM | GI50 (SR leukemia): 2.77 µM | TGI (SR leukemia): 7.77 µM | GI50 (SW-620 colon): 3.58 µM | TGI (SW-620 colon): 15.1 µM | GI50 (U251 CNS): 2.02 µM | TGI (U251 CNS): 6.82 µM | GI50 (UACC-257 melanoma): 4.05 µM | TGI (UACC-257 melanoma): 17.5 µM | GI50 (UACC-62 melanoma): 3.01 µM | TGI (UACC-62 melanoma): 9.34 µM | GI50 (UO-31 renal): 1.93 µM | TGI (UO-31 renal): 8.64 µM
